Results: US12590062B2, “PD-1/PD-L1 inhibitors” (Gilead Sciences, Inc., priority 2017, dated 2026)

Legend:
[1] = target: T1, PD-1/PD-L1 interaction (Homo sapiens, UniProt Q9NZQ7); test: PD-1/PD-L1 NFAT reporter co-culture assay; type: cell-based; details: Jurkat PD-1 NFAT-luciferase cells co-cultured with aAPC-PD-L1 CHO cells, 6 hrs at 37° C.; read-out: EC50 NFAT Luciferase
T1 construct: expressed in transfected cells; host or cells: CHO cells (aAPC-PD-L1) co-cultured with Jurkat cells overexpressing PD-1 and an NFAT-luciferase reporter
Procedure, shortened: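 Compounds are scored by restoration of NFAT-luciferase signal in PD-1-expressing Jurkat cells cultured 6 h at 37 °C on CHO cells presenting anti-CD3 and PD-L1; EC50 values derive from four-parameter curve fitting.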

[2] = target: PD-1/PD-L1 (Homo sapiens, UniProt Q9NZQ7); test: PD-1/PD-L1 biochemical protein-protein interaction assay (ALPHA); type: binding; details: 0.3 nM His tagged PD-L1, 2.5 nM biotinylated Fc-PD-1, 60 minutes at 25° C., read-out: IC50 PD-L1-PD-1 Alpha IC50-mono PD-L1-fcP-D1
Procedure: Biological Activity PD-1/PD-L1 & CTLA/CD80 Biochemical Protein-Protein Interaction Assay
Compounds were tested in biochemical protein-protein interaction assays to determine if they can specifically block the interaction between the extracellular domains of PD-1/PD-L1 or CTLA/CD80. Binding of the protein pairs is measured using a bead based Amplified Luminescent Proximity Homogeneous Assay (ALPHA) platform. Binding of each protein pair results in proximity of the donor and acceptor beads which leads to an increase in ALPHA signal. Disruption of the protein-protein interaction with a test compound results in a decrease in ALPHA signal. Assays are performed in 25 mM Hepes (pH 7.4), 150 mM NaCl, 3.4 mM EDTA, 0.005% Tween 20, and 0.01% BSA. Final protein concentration in the assays were 0.3 nM (His tagged PD-L1), 2.5 nM (biotinylated Fc-PD-1), 1 nM (His tagged CTLA4) and 1 nM (biotinylated CD80). After an assay reaction time of 60 minutes at 25° C., binding was measured with addition of 20 μg/mL ALPHA assay acceptor beads (anti-His coated) and […] ALPHA assay donor beads (streptavidin coated). IC50 values were calculated from the fit of the dose-response curves to a four-parameter equation. Representative data are shown below in Table 1.

T1 sequence (Q9NZQ7 19-290): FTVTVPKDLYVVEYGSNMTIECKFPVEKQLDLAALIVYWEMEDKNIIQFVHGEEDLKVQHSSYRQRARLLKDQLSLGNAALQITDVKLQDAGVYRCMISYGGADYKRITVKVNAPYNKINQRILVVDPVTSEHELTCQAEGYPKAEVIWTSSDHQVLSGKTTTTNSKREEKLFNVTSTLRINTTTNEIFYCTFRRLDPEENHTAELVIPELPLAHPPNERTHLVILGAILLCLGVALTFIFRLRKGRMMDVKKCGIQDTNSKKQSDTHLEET
PD-1/PD-L1, sequence (Q9NZQ7 19-238 limits assumed): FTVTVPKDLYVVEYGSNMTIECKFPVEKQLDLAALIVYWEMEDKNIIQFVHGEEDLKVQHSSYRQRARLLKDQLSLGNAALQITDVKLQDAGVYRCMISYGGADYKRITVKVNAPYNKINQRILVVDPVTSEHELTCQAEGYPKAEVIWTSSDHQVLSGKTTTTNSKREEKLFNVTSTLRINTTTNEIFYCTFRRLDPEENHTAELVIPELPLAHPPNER

Row | SMILES | EC50 [1] [nM] | IC50 [2] [nM]
1 | Cc1c(COc2cc(OCc3cncc(C#N)c3)c(CN3C[C@@H](O)C[C@H]3C(=O)O)cc2Cl)cccc1-c1cccc(COc2cc(OCc3cncc(C#N)c3)c(CN3C[C@@H](O)C[C@H]3C(=O)O)cc2Cl)c1C [Example 58, (2S,2′S,4S,4'S)-1,1′-(((((2,2′-dimethyl-[1,1′-biphenyl]-3,3′-diyl)bis(methylene))bis(oxy))bis(5-chloro-2-((5-cyanopyridin-3-yl)methoxy)-4,1-phenylene))bis(methylene))bis(4-hydroxypyrrolidine-2-carboxylic acid)] | 822 | 0.3
2 | COc1nc(OCc2cccc(-c3cccc(COc4nc(OC)c(CN5CC[C@H]5C(=O)O)cc4Br)c3C)c2C)c(Br)cc1CN1CC[C@H]1C(=O)O [Example 59, (2S,2′S)-1,1′-(((((2,2′-dimethyl-[1,1′-biphenyl]-3,3′-diyl)bis(methylene))bis(oxy))bis(5-bromo-2-methoxypyridine-6,3-diyl))bis(methylene))bis(azetidine-2-carboxylic acid)] | 1250 | 0.1
3 | COc1nc(OCc2cccc(-c3cccc(COc4nc(OC)c(CN5CC[C@H]5C(=O)O)cc4Br)c3C)c2C)ccc1CN1CC[C@H]1C(=O)O [Example 60, (S)-1-((6-((3′-(((3-bromo-5-(((S)-2-carboxyazetidin-1-yl)methyl)-6-methoxypyridin-2-yl)oxy)methyl)-2,2′-dimethyl-[1,1′-biphenyl]-3-yl)methoxy)-2-methoxypyridin-3-yl)methyl)azetidine-2-carboxylic acid] | ≥ 50000 | 2.3
4 | Cc1c(COc2cc(O)c(CNC[C@@H](O)CC(=O)O)cc2Cl)cccc1-c1cccc(COc2cc(OCc3cncc(C#N)c3)c(CNC[C@@H](O)CC(=O)O)cc2Cl)c1C [Example 67, (S)-4-((4-((3′-((4-((((S)-3-carboxy-2-hydroxypropyl)amino)methyl)-2-chloro-5-((5-cyanopyridin-3-yl)methoxy)phenoxy)methyl)-2,2′-dimethyl-[1,1′-biphenyl]-3-yl)methoxy)-5-chloro-2-hydroxybenzyl)amino)-3-hydroxybutanoic acid] | 1320 | 1
5 | Cc1c(COc2ccc(CNCCO)cc2)cccc1-c1cccc(COc2cc(OCc3cncc(C#N)c3)c(CNCCO)cc2Cl)c1C [Example 69, 5-((4-chloro-2-(((2-hydroxyethyl)amino)methyl)-5-((3′-((4-(((2-hydroxyethyl)amino)methyl)phenoxy)methyl)-2,2′-dimethyl-[1,1′-biphenyl]-3-yl)methoxy)phenoxy)methyl)nicotinonitrile] | 1740 | 14.2
6 | CC(=O)NCCNCc1cc(Cl)c(OCc2cccc(-c3cccc(COc4cc(OCc5cncc(C#N)c5)c(CNCCNC(C)=O)cc4Cl)c3C)c2C)cc1OCc1cncc(C#N)c1 [Example 70, N,N′-(((((((2,2′-dimethyl-[1,1′-biphenyl]-3,3′-diyl)bis(methylene))bis(oxy))bis(5-chloro-2-((5-cyanopyridin-3-yl)methoxy)-4,1-phenylene))bis(methylene))bis(azanediyl))bis(ethane-2,1-diyl))diacetamide] | 902 | 10.6
7 | Cc1c(COc2ccc(CNCCO)cc2Cl)cccc1-c1cccc(COc2cc(OCc3cncc(C#N)c3)c(CNCCO)cc2Cl)c1C [Example 71, 5-((4-chloro-5-((3′-((2-chloro-4-(((2-hydroxyethyl)amino)methyl)phenoxy)methyl)-2,2′-dimethyl-[1,1′-biphenyl]-3-yl)methoxy)-2-(((2-hydroxyethyl)amino)methyl)phenoxy)methyl)nicotinonitrile] | 1030 | 26.5
8 | COc1nc(OCc2cccc(-c3cccc(COc4ccc(CNCCO)c(OC)n4)c3C#N)c2C)ccc1CNCCO [Example 72, 3,3′-bis(((5-(((2-hydroxyethyl)amino)methyl)-6-methoxypyridin-2-yl)oxy)methyl)-2′-methyl-[1,1′-biphenyl]-2-carbonitrile] | 2510 | 8
9 | Cc1c(COc2cc(OCc3cncc(C#N)c3)c(CNCCCO)cc2Cl)cccc1-c1cccc(COc2cc(OCc3cncc(C#N)c3)c(CNCCCO)cc2Cl)c1C [Example 73, 5,5′-((((((2,2′-dimethyl-[1,1′-biphenyl]-3,3′-diyl)bis(methylene))bis(oxy))bis(4-chloro-6-(((3-hydroxypropyl)amino)methyl)-3,1-phenylene))bis(oxy))bis(methylene))dinicotinonitrile] | 2620 | 56.1
10 | COc1nc(OCc2cccc(-c3cccc(COc4ccc(CNCC(O)C(F)(F)C(=O)O)c(OC)n4)c3C)c2C)ccc1CNCC(O)C(F)(F)C(=O)O (stereo not shown) [Example 84, 4,4′-((((((2,2′-dimethyl-[1,1′-biphenyl]-3,3′-diyl)bis(methylene))bis(oxy))bis(2-methoxypyridine-6,3-diyl))bis(methylene))bis(azanediyl))bis(2,2-difluoro-3-hydroxybutanoic acid)] | 10000 | 0.9
11 | COc1nc(OCc2cccc(-c3cccc(COc4nc(OC)c(CNC[C@@H](O)CC(=O)O)cc4C)c3C)c2C)c(C)cc1CNC[C@@H](O)CC(=O)O [Example 119, (3S,3′S)-4,4′-((((((2,2′-dimethyl-[1,1′-biphenyl]-3,3′-diyl)bis(methylene))bis(oxy))bis(2-methoxy-5-methylpyridine-6,3-diyl))bis(methylene))bis(azanediyl))bis(3-hydroxybutanoic acid)] | 863 | 0.8
12 | C=Cc1cc(CNC[C@@H](O)CC(=O)O)c(OC)nc1OCc1cccc(-c2cccc(COc3nc(OC)c(CNC[C@@H](O)CC(=O)O)cc3C=C)c2C)c1C [Example 120, (3S,3′S)-4,4′-((((((2,2′-dimethyl-[1,1′-biphenyl]-3,3′-diyl)bis(methylene))bis(oxy))bis(2-methoxy-5-vinylpyridine-6,3-diyl))bis(methylene))bis(azanediyl))bis(3-hydroxybutanoic acid)] | 1300 | 2
13 | Cc1c(COc2nc(OCc3cncs3)c(CNC[C@@H](O)CC(=O)O)cc2Br)cccc1-c1cccc(COc2nc(OCc3cncs3)c(CNC[C@@H](O)CC(=O)O)cc2Br)c1C [Example 138, (3S,3′S)-4,4′-((((((2,2′-dimethyl-[1,1′-biphenyl]-3,3′-diyl)bis(methylene))bis(oxy))bis(5-bromo-2-(thiazol-5-ylmethoxy)pyridine-6,3-diyl))bis(methylene))bis(azanediyl))bis(3-hydroxybutanoic acid)] | 392 | 1
14 | Cc1c(COc2nc(OCc3cnnn3Cc3ccccc3)c(CNC[C@@H](O)CC(=O)O)cc2Br)cccc1-c1cccc(COc2nc(OCc3cnnn3Cc3ccccc3)c(CNC[C@@H](O)CC(=O)O)cc2Br)c1C [Example 139, (3S,3′S)-4,4′-((((((2,2′-dimethyl-[1,1′-biphenyl]-3,3′-diyl)bis(methylene))bis(oxy))bis(2-((1-benzyl-1H-1,2,3-triazol-5-yl)methoxy)-5-bromopyridine-6,3-diyl))bis(methylene))bis(azanediyl))bis(3-hydroxybutanoic acid)] | 23900 | 5.1
15 | Cc1c(COc2nc(OCC3CC3)c(CNC[C@@H](O)CC(=O)O)cc2Br)cccc1-c1cccc(COc2nc(OCC3CC3)c(CNC[C@@H](O)CC(=O)O)cc2Br)c1C [Example 141, (3S,3′S)-4,4′-((((((2,2′-dimethyl-[1,1′-biphenyl]-3,3′-diyl)bis(methylene))bis(oxy))bis(5-bromo-2-(cyclopropylmethoxy)pyridine-6,3-diyl))bis(methylene))bis(azanediyl))bis(3-hydroxybutanoic acid)] | ≥ 50000 | 3.6
16 | COC(=O)COc1nc(OCc2cccc(-c3cccc(COc4nc(OCC(=O)OC)c(CNC[C@@H](O)CC(=O)O)cc4Br)c3C)c2C)c(Br)cc1CNC[C@@H](O)CC(=O)O [Example 150, (3S,3′S)-4,4′-((((((2,2′-dimethyl-[1,1′-biphenyl]-3,3′-diyl)bis(methylene))bis(oxy))bis(5-bromo-2-(2-methoxy-2-oxoethoxy)pyridine-6,3-diyl))bis(methylene))bis(azanediyl))bis(3-hydroxybutanoic acid)] | ≥ 50000 | 0.5
17 | C=CCOc1nc(OCc2cccc(-c3cccc(COc4nc(OCC=C)c(CNC[C@@H](O)CC(=O)O)cc4Br)c3C)c2C)c(Br)cc1CNC[C@@H](O)CC(=O)O [Example 151, (3S,3′S)-4,4′-((((((2,2′-dimethyl-[1,1′-biphenyl]-3,3′-diyl)bis(methylene))bis(oxy))bis(2-(allyloxy)-5-bromopyridine-6,3-diyl))bis(methylene))bis(azanediyl))bis(3-hydroxybutanoic acid)] | ≥ 50000 | 2.2
